Data on ten molecules can be found in patent publication EP4159720A1, “NONSYMMETRIC SUBSTITUTED 1,1'-BIPHENYL DERIVATIVES AND USES THEREOF” (Recepton Spolka z Ograniczona Odpowiedzialnoscia, priority 2021, dated 2023).

For test [1], the target named is T1, PD-1/PD-L1 interaction (Homo sapiens, UniProt Q9NZQ7).
T1 construct: host or cells: PD-L1 aAPC/CHO-K1 cells; PD-1 Effector Jurkat T cells
Put plainly: PD-1/PD-L1 Blockade Bioassay (Promega J1252; NFAT cellular assay). The test is classed as cell-based. To be noted: PD-1 Effector Jurkat cells co-cultured with PD-L1 aAPC/CHO-K1 cells for 6 h; NFAT-RE luminescence; three replications. The protocol:
The potency of blocking the PD-1/PD-L1 pathway was assessed using the PD-1/PD-L1 Blockade Bioassay (Promega, cat. J1252). This assay relies on two genetically engineered cell lines: PD-1 Effector cells (Jurkat T cells expressing human PD-1 and luciferase driven by NFAT response element) and PD-L1 aAPC/CHO-K1 cells (CHO-K1 cells expressing human PD-L1 and cell surface protein designed to activate cognate T-cell Receptors in an antigen-independent manner). When the two cell types are co-cultured, the PD-1/PD-L1 interaction inhibits TCR signaling and NFAT-RE-mediated luminescence. Addition of either an anti-PD-1 or anti-PD-L1 antibody that blocks the PD-1/PD-L1 interaction releases the inhibitory signal and leads to TCR activation and the NFAT-RE-mediated luminescence, which is then measured on a microplate reader. The assay was performed according to the manufacturer's manual. PD-L1 aAPC/CHO-K1 cells were plated in 96-well, white, flat bottom assay plates at […] cells in 100 µL of medium (Ham's F12, 10% FBS) and incubated overnight at 37°C, 5% CO2. The next day, the medium was removed from the assay plate and serially diluted compounds as listed in table 1 were added at 40 µL per well in the assay buffer (RPMI1640 + 1% FBS + 0,5% DMSO). Next, PD-1 Effector Jurkat cells were resuspended in the assay buffer (RPMI 1640 + 1% FBS) at a concentration of 1,25 × 10^6 cells/mL and added to the assay plate at 40 µL per well (total of […]). The cells were co-cultured for 6 h (37°C, 5% CO2) and then removed from the incubator and equilibrated for 5 min at room temperature. The Bio-GloTM Reagent (Promega, cat. G7941) was prepared according to the manufacturer's instructions and added to each well at 80 µL per well. The results were baseline-corrected to non-treated controls, averaged from three replications and fitted with a 4-parameters variable slope.

The target in test [2] is T2, hPD-1 (50 nM) and hPD-L1 (5 nM) protein complex (Homo sapiens, UniProt Q9NZQ7).
T2 construct: purchased Cisbio 64ICP01PEG
Put plainly: Homogenous Time Resolved Fluorescence (HTRF) assay, Cisbio kit 64ICP01PEG. The test is classed as binding. Particulars: activity range from Hill curve fit; 1 h incubation at room temperature; TR-FRET; three independent measurements. The procedure: The biological activity of the compounds described in the previous section was tested by the Homogenous Time Resolved Fluorescence (HTRF) method. Determination was carried out with the use of putty from the Cisbio company (catalog number 64ICP01PEG) in the 20 µL format using the protocol from the manufacturer. Compounds in the concentration range allowing determination of biological activity from the inflection curve were added to the hPD-1 (50 nM) and hPD-L1 (5 nM) protein complex with antibodies and allowed to incubate for one hour at room temperature before measuring Forster resonant energy transfer (TR-FRET) on a Tecan Spark 20M instrument. The results were normalized to a positive control (complex without inhibitor) and negative control (no hPD-1), averaged from three independent measurements and fitted with a Hill curve.
Ranges of activity of the tested compounds: "very good" (+++) below 20 nM, "moderate" (++) - 20-50 nM and "low" (+) - 50 nM - 1 µM.
Background: TR-FRET usually uses a lanthanide donor and a delayed reading to cut background.

Structures are written as SMILES. Where a name gives a salt, the structure may show the parent alone.

T2 sequence (Q9NZQ7 19-238 limits assumed, one chain of several): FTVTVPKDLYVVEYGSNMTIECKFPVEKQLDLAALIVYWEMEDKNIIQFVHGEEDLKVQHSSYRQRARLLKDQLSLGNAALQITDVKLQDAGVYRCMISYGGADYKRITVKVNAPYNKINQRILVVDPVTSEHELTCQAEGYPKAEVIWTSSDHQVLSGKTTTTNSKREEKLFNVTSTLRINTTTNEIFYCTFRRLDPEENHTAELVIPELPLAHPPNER
T1 sequence (Q9NZQ7 19-290): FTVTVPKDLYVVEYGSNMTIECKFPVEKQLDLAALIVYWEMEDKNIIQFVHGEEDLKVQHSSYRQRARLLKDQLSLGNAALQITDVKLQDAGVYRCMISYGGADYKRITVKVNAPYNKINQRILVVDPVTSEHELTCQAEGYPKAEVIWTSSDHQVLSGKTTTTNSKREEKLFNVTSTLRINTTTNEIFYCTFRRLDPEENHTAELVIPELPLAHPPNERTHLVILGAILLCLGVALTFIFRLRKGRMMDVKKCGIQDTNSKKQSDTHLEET

For `COc1cc(C(=O)Nc2cccc(-c3cccc(NC(=O)c4cc(OC)c(CN[C@@H](C)CO)cn4)c3C)c2C)ncc1CN[C@H]1CCC[C@@H]1O` [Compound R1_C428, 5-((((1S,2S)-2-hydroxycyclopentyl)amino)methyl)-N-(3'-(5-((((S)-1-hydroxypropan-2-yl)amino)methyl)-4-methoxypicolinamido)-2,2'-dimethyl-[1,1'-biphenyl]-3-yl)-4-methoxypicolinamide], in test [1], the EC50 (as a rule, the midpoint of the concentration-response curve) came out at 44.6 nM. Further, the IC50 (usually the midpoint of a concentration-inhibition curve) in test [2] was less than 20 nM.
On the same counts, the results for `COc1cc(C(=O)Nc2cccc(-c3cccc(NC(=O)c4cc(OC)c(CN(C)CCO)cn4)c3C)c2C)ncc1CN[C@@H](C)CO` [Compound R1_C441, (S)-5-(((2-hydroxyethyl)(methyl)amino)methyl)-N-(3'-(5-(((1-hydroxypropan-2-yl)amino)methyl)-4-methoxypicolinamido)-2,2'-dimethyl-[1,1'-biphenyl]-3-yl)-4-methoxypicolinamide] are 176 nM and less than 20 nM.
On the same counts, the results for `COc1cc(C(=O)Nc2cccc(-c3cccc(NC(=O)c4cc(OC)c(CN[C@@H]5CCC[C@H]5O)cn4)c3C)c2C)ncc1CNC(CO)CO` [Compound R1_C445, 5-(((1,3-dihydroxypropan-2-yl)amino)methyl)-N-(3'-(5-((((1R,2R)-2-hydroxycyclopentyl)amino)methyl)-4-methoxypicolinamido)-2,2'-dimethyl-[1,1'-biphenyl]-3-yl)-4-methoxypicolinamide] are 150 nM and less than 20 nM.
On the same counts, the results for `COc1cc(C(=O)Nc2cccc(-c3cccc(NC(=O)c4cc(OC)c(CN[C@@H](C)CO)cn4)c3C)c2C)ncc1CNC(CO)CO` [Compound R1_C446, (S)-5-(((1,3-dihydroxypropan-2-yl)amino)methyl)-N-(3'-(5-(((1-hydroxypropan-2-yl)amino)methyl)-4-methoxypicolinamido)-2,2'-dimethyl-[1,1'-biphenyl]-3-yl)-4-methoxypicolinamide] are 205 nM and less than 20 nM.
`COc1cc(C(=O)Nc2cccc(-c3cccc(NC(=O)c4ccc(CN(C)CCO)cn4)c3C)c2C)ncc1CN(C)CCO` [Compound R1_C450, 5-(((2-hydroxyethyl)(methyl)amino)methyl)-N-(3'-(5-(((2-hydroxyethyl)(methyl)amino)methyl)picolinamido)-2,2'-dimethyl-[1,1'-biphenyl]-3-yl)-4-methoxypicolinamide] displayed an EC50 in test [1] of 206 nM. In test [2], this molecule showed an IC50 of less than 20 nM.
Taken in the same sequence, the figures for `COc1cc(C(=O)Nc2cccc(-c3cccc(NC(=O)c4ccc(CN(C)CCO)cn4)c3C)c2C)ncc1CN[C@@H]1CCC[C@H]1O` [Compound R1_C451, 5-((((1R,2R)-2-hydroxycyclopentyl)amino)methyl)-N-(3'-(5-(((2-hydroxyethyl)(methyl)amino)methyl)picolinamido)-2,2'-dimethyl-[1,1'-biphenyl]-3-yl)-4-methoxypicolinamide] were 68 nM and less than 20 nM.
Take `COc1cc(C(=O)Nc2cccc(-c3cccc(NC(=O)c4ccc(CN(C)CCO)cn4)c3C)c2C)ncc1CN[C@@H]1CCC[C@H]1O` [Compound R1_C451_1, 5-((((1R,2R)-2-hydroxycyclopentyl)amino)methyl)-N-(3'-(5-(((2-hydroxyethyl)(methyl)amino)methyl)picolinamido)-2,2'-dimethyl-[1,1'-biphenyl]-3-yl)-4-methoxypicolinamide trihydrochloride]: in test [1], a half-maximal effect (EC50) was put at 234 nM. That is a sub-micromolar value.
Consider `COc1cc(C(=O)Nc2cccc(-c3cccc(NC(=O)c4cc(OC)c(CN[C@@H](C)CO)cn4)c3C)c2C)ncc1CNCCCO` [Compound R1_C453, (S)-5-(((1-hydroxypropan-2-yl)amino)methyl)-N-(3'-(5-(((3-hydroxypropyl)amino)methyl)-4-methoxypicolinamido)-2,2'-dimethyl-[1,1'-biphenyl]-3-yl)-4-methoxypicolinamide], for which the EC50 in test [1] is 143 nM. In test [2], this molecule returned an IC50 of less than 20 nM.
On the same counts, the results for `COc1cc(C(=O)Nc2cccc(-c3cccc(NC(=O)c4cc(OC)c(CNCCCO)cn4)c3C)c2C)ncc1CNCCO` [Compound R1_C454, 5-(((2-hydroxyethyl)amino)methyl)-N-(3'-(5-(((3-hydroxypropyl)amino)methyl)-4-methoxypicolinamido)-2,2'-dimethyl-[1,1'-biphenyl]-3-yl)-4-methoxypicolinamide] are 480 nM and 50 to 1000 nM.
As for `COc1cc(C(=O)Nc2cccc(-c3cccc(NC(=O)c4ccc(CN(C)CCO)cn4)c3C)c2C)ncc1CN[C@@H](C)CO` [Compound R1_C458, (S)-N-(3'-(5-(((2-hydroxyethyl)(methyl)amino)methyl)picolinamido)-2,2'-dimethyl-[1,1'-biphenyl]-3-yl)-5-(((1-hydroxypropan-2-yl)amino)methyl)-4-methoxypicolinamide], a half-maximal effect in test [1] (EC50) was put at 159 nM. This molecule also showed an IC50 in test [2] of less than 20 nM.
